pEC50: −log10 of the molar value.

The target in experiment [1] is T1, human M2 receptor (Homo sapiens, UniProt P08172).
T1 sequence (P08172 1-466): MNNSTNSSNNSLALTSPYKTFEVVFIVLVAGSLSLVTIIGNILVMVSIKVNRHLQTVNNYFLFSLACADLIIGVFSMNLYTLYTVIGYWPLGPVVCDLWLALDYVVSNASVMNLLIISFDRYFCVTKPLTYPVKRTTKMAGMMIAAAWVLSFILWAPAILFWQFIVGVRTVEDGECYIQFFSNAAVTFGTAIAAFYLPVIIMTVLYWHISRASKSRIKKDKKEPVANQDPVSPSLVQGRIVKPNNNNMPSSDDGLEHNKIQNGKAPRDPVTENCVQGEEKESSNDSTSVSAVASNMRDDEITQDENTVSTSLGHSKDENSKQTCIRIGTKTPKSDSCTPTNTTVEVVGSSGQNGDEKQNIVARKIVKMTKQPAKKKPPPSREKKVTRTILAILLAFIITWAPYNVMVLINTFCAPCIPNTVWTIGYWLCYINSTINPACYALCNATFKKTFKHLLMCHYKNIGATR
In words: Functional M2-GIRK1/4 activation test: allosteric potency (EC50) and efficiency. As to conditions: for pEC50: Receptor activity EC50, CHO-DUKX-M2-GIRK cells, acetylcholine at EC20, in some cases mean of two or more determinations; for Emax: read-out: Efficiency, boosting of the acetylcholine effect at EC20 acetylcholine concentration; for Emax / Efficiency: CHO-DUKX-M2-GIRK cells; for Efficiency: boosting of the acetylcholine effect at EC20 acetylcholine concentration.

Experiment [2] addresses T1, human M2 receptor. The experiment in a line: Functional M2-GIRK1/4 activation test: positive cooperativity (alpha factor). As to conditions: shift of acetylcholine dose-response curve (Allosteric EC50 shift); CHO-DUKX-M2-GIRK cells.
Description: The binding of orthosteric agonists (endogenous ligand: acetylcholine) to the M2 receptor leads to receptor activation or a change in conformation of the receptor in the manner of a shift in equilibrium in favor of the active receptor conformation.
The agonist-induced change in conformation of the M2 receptor results in a Gαi protein activation. […] Under physiological conditions, the result is then a selective efflux of potassium from the cell along the electrochemical gradient. […] The extent of hyperpolarization can therefore be regarded as a measure of the activation of the M2 receptor.
The test cell used is a recombinant CHO-DUKX cell line which has been stably transfected with cDNA coding for the human M2 receptor and with cDNA coding for both GIRK1/4 subunits (CHO-DUKX-M2-GIRK). The transmembrane potential, or the relative changes in the transmembrane potential as a function of substance addition or M2 activation, is determined by means of a voltage-sensitive dye (FLIPR Membrane Potential Assay Kit Blue, Molecular Devices #R8034) and the measurement of cell fluorescence using a proprietary fluorescence imaging instrument.
In accordance with the desired test concentrations, the substances were pre-diluted in loading buffer (see above).
The sowing medium consisted of MEM alpha medium (supplemented with 5% FCS, 2% Glutamax, no genticin).
For the particular measurement, the medium was removed and the cells were laden with the voltage-sensitive dye for at least 6 min at room temperature (30 μl of loading buffer per 384-well). This was followed, in a first measurement, by the determination of the resting transmembrane potential for a period of 5 sec in 1 sec increments. Thereafter, 10 μl in each case of the test substances diluted in loading buffer are added, followed by a second measurement to determine the transmembrane potential for a period of 50 sec in 1 sec increments.
Finally, the cells are admixed with 10 μl of agonist solution (acetylcholine dissolved in loading buffer). In contrast to the EC50 determination of the test substances (see B-1.1), however, this is not done using one acetylcholine concentration; instead, every concentration of the test substance is combined with an acetylcholine 8-point dose-response curve. […] The M2-mediated GIRK1/4 activation or hyperpolarization is then monitored in a third measurement over a period of 60 sec in 1 sec increments. The shift in the acetylcholine dose-response curve in the presence of increasing concentrations of the test substance is analyzed and quantified by means of GraphPad PRISM (Allosteric EC50 shift). […] Positive cooperativity is the hallmark of a positive allosteric modulator. […] The greater the magnitude of the cc value, the greater the extent of cooperativity between orthosteric and allosteric.

In general, pEC50 refers to the negative decadic logarithm of the EC50, by convention in mol/L. High values mean a low EC50, low ones a high EC50. Consider `O=C(NC(c1ccccc1Cl)C(F)(F)F)c1cn(-c2ncc(F)cc2F)c2nc(N3C[C@@H](O)CC3=O)ccc2c1=O` (mixture of isomers) [Example 4, N-[1-(2-Chlorophenyl)-2,2,2-trifluoroethyl]-1-(3,5-difluoropyridin-2-yl)-7-[(4S)-4-hydroxy-2-oxopyrrolidin-1-yl]-4-oxo-1,4-dihydro-1,8-naphthyridine-3-carboxamide], for which, at human M2 receptor [1], the pEC50 is 7.85 and the Emax was 98.2%. On human M2 receptor [2], the “Cooperativity (alpha factor)” value amounted to 63.
As for `CCC(COC(F)(F)F)NC(=O)c1cn(-c2ncc(F)cc2F)c2nc(N3C[C@@H](O)CC3=O)ccc2c1=O` (mixture of isomers) [Example 17, 1-(3,5-Difluoropyridin-2-yl)-7-[(4S)-4-hydroxy-2-oxopyrrolidin-1-yl]-4-oxo-N-[1-(trifluoromethoxy)butan-2-yl]-1,4-dihydro-1,8-naphthyridine-3-carboxamide], on human M2 receptor [1], the pEC50 was 6.95 and the Emax is 88%. Also, on human M2 receptor [2], the “Cooperativity (alpha factor)” value was determined as 24.
Take `CC1CC(=O)N(c2ccc3c(=O)c(C(=O)N[C@H](C4CC4)C(F)(F)F)cn(-c4ncc(F)cc4F)c3n2)C1` (mixture of isomers) [Example 27, N-[(1R)-1-Cyclopropyl-2,2,2-trifluoroethyl]-1-(3,5-difluoropyridin-2-yl)-7-[4-methyl-2-oxopyrrolidin-1-yl]-4-oxo-1,4-dihydro-1,8-naphthyridine-3-carboxamide]: on human M2 receptor [1], the pEC50 is 7.44 and the Emax was 79%. Also, on human M2 receptor [2], the “Cooperativity (alpha factor)” value is reported as 10.
On human M2 receptor [1], `O=C(NC(c1ccccc1Cl)C(F)(F)F)c1cn(-c2ncc(F)cc2F)c2nc(N3C[C@@H](O)CC3=O)ccc2c1=O` (single isomer, unassigned) [Example 5] had a pEC50 of 7.51 and an Efficiency of 98.25%. The “Cooperativity (alpha factor)” value at human M2 receptor [2] came out at 63.
`CCC(COC(F)(F)F)NC(=O)c1cn(-c2ncc(F)cc2F)c2nc(N3C[C@@H](O)CC3=O)ccc2c1=O` (single isomer, unassigned) [Example 18]: on human M2 receptor [1], the pEC50 is 7.17 and the Emax is 87%. The “Cooperativity (alpha factor)” value at human M2 receptor [2] is on record as 34.
On human M2 receptor [1], `CCC(COC(F)(F)F)NC(=O)c1cn(-c2ncc(F)cc2F)c2nc(N3C[C@@H](O)CC3=O)ccc2c1=O` (single isomer, unassigned) [Example 19] showed a pEC50 of 7.07 and an Efficiency of 91.50%. The “Cooperativity (alpha factor)” value on human M2 receptor [2] is on record as 38.
As to `CC1CC(=O)N(c2ccc3c(=O)c(C(=O)N[C@H](C4CC4)C(F)(F)F)cn(-c4ncc(F)cc4F)c3n2)C1` (single isomer, unassigned) [Example 28], at human M2 receptor [1], the pEC50 was 7.72 and the Emax is 100%. The “Cooperativity (alpha factor)” value at human M2 receptor [2] is 17.
As to `O=C(NC(c1ccccc1Cl)C(F)(F)F)c1cn(-c2ncc(F)cc2F)c2nc(N3C[C@@H](O)[C@H](O)C3)ccc2c1=O` (single isomer, unassigned) [Example 84], at human M2 receptor [1], the pEC50 is 7.70 and the Emax was 100%. Also, the “Cooperativity (alpha factor)” value at human M2 receptor [2] was found to be 57.
`CC(NC(=O)c1cn(-c2ncc(F)cc2F)c2nc(N3C[C@@H](O)[C@H](O)C3)ccc2c1=O)C(F)(F)C(F)(F)F` (single isomer, unassigned) [Example 90]: on human M2 receptor [1], the pEC50 was 7.62 and the Efficiency came to 100.00%. The “Cooperativity (alpha factor)” value on human M2 receptor [2] came to 41.
Consider `CCC(NC(=O)c1cn(-c2ncc(F)cc2F)c2nc(N3C[C@@H](O)CC3=O)ccc2c1=O)C(F)(F)C(F)(F)F` (single isomer, unassigned) [Example 93], for which, at human M2 receptor [1], the pEC50 is 7.85 and the Emax turned out to be 98%. The “Cooperativity (alpha factor)” value at human M2 receptor [2] was 41.
On human M2 receptor [1], `CCC(NC(=O)c1cn(-c2ncc(F)cc2F)c2nc(N3C[C@@H](O)[C@H](O)C3)ccc2c1=O)C(F)(F)C(F)(F)F` (single isomer, unassigned) [Example 97] gave a pEC50 of 7.42 and an Efficiency of 96.50%. Besides, the “Cooperativity (alpha factor)” value at human M2 receptor [2] is 53.
`CC1(NC(=O)c2cn(-c3ncc(F)cc3F)c3nc(N4CCNC4=O)ccc3c2=O)CC(F)(F)C1` [Example 171, N-(3,3-Difluoro-1-methylcyclobutyl)-1-(3,5-difluoropyridin-2-yl)-4-oxo-7-(2-oxoimidazolidin-1-yl)-1,4-dihydro-1,8-naphthyridine-3-carboxamide]: at human M2 receptor [1], the pEC50 was 5.51 and the Emax came out at 90.5%.
In the same order, the values of `CC1(NC(=O)c2cn(-c3ncc(F)cc3F)c3nc(N4C[C@@H](O)CC4=O)ccc3c2=O)CC(F)(F)C1` [Example 172, N-(3,3-Difluoro-1-methylcyclobutyl)-1-(3,5-difluoropyridin-2-yl)-7-[(4S)-4-hydroxy-2-oxopyrrolidin-1-yl]-4-oxo-1,4-dihydro-1,8-naphthyridine-3-carboxamide] are 5.80 and 98%.
For `CC(C)(NC(=O)c1cn(-c2ncc(F)cc2F)c2nc(N3CCCC[C@@H]3CO)ccc2c1=O)C(F)(F)C(F)(F)F` [Example 173, 1-(3,5-Difluoropyridin-2-yl)-7-[(2R)-2-(hydroxymethyl)piperidin-1-yl]-4-oxo-N-(3,3,4,4,4-pentafluoro-2-methylbutan-2-yl)-1,4-dihydro-1,8-naphthyridine-3-carboxamide], on human M2 receptor [1], the pEC50 was 7.06 and the Emax is 100%.
On to `CC(C)(NC(=O)c1cn(-c2ncc(F)cc2F)c2nc(N3CCC(O)(CO)CC3)ccc2c1=O)C(F)(F)C(F)(F)F` [Example 174, 1-(3,5-Difluoropyridin-2-yl)-7-[4-hydroxy-4-(hydroxymethyl)piperidin-1-yl]-4-oxo-N-(3,3,4,4,4-pentafluoro-2-methylbutan-2-yl)-1,4-dihydro-1,8-naphthyridine-3-carboxamide], for which, on human M2 receptor [1], the pEC50 is 7.08 and the Emax stood at 100%.
Consider `O=C(NC(C(F)(F)F)C(F)(F)F)c1cn(-c2ncc(F)cc2F)c2nc(N3CCCC[C@@H]3CO)ccc2c1=O` [Example 178, 1-(3,5-Difluoropyridin-2-yl)-N-(1,1,1,3,3,3-hexafluoropropan-2-yl)-7-[(2R)-2-(hydroxymethyl)piperidin-1-yl]-4-oxo-1,4-dihydro-1,8-naphthyridine-3-carboxamide], for which, at human M2 receptor [1], the pEC50 was 7.25 and the Emax was 100%.
As to `O=C(NC(C(F)(F)F)C(F)(F)F)c1cn(-c2ncc(F)cc2F)c2nc(N3CCC(O)(CO)CC3)ccc2c1=O` [Example 179], at human M2 receptor [1], the pEC50 was 7.02 and the Emax amounted to 100%.
For the molecule `O=C(NC(C(F)(F)F)C(F)(F)F)c1cn(-c2ncc(F)cc2F)c2nc(N3CCC[C@@H]3CO)ccc2c1=O` [Example 180, 1-(3,5-Difluoropyridin-2-yl)-N-(1,1,1,3,3,3-hexafluoropropan-2-yl)-7-[(2R)-2-(hydroxymethyl)pyrrolidin-1-yl]-4-oxo-1,4-dihydro-1,8-naphthyridine-3-carboxamide], on human M2 receptor [1], the pEC50 is 7.05 and the Emax was 100%.
As to `CC(C)(NC(=O)c1cn(-c2ncc(F)cc2F)c2nc(N3CC4(COC4)C3)ccc2c1=O)C(F)(F)C(F)(F)F` [Example 182, 1-(3,5-Difluoropyridin-2-yl)-7-(2-oxa-6-azaspiro[3.3]hept-6-yl)-4-oxo-N-(3,3,4,4,4-pentafluoro-2-methylbutan-2-yl)-1,4-dihydro-1,8-naphthyridine-3-carboxamide], at human M2 receptor [1], the pEC50 was 6.39 and the Emax came out at 100%.
`CC(C)(NC(=O)c1cn(-c2ncc(F)cc2F)c2nc(N3CC(CO)(CO)C3)ccc2c1=O)C(F)(F)C(F)(F)F` [Example 184, 7-[3,3-Bis(hydroxymethyl)azetidin-1-yl]-1-(3,5-difluoropyridin-2-yl)-4-oxo-N-(3,3,4,4,4-pentafluoro-2-methylbutan-2-yl)-1,4-dihydro-1,8-naphthyridine-3-carboxamide]: on human M2 receptor [1], the pEC50 is 6.89 and the Emax was found to be 100%.
With `O=C(NC(C(F)(F)F)C(F)(F)F)c1cn(-c2ncc(F)cc2F)c2nc(N3CCC(CO)(CO)CC3)ccc2c1=O` [Example 186, 7-[4,4-Bis(hydroxymethyl)piperidin-1-yl]-1-(3,5-difluoropyridin-2-yl)-N-(1,1,1,3,3,3-hexafluoropropan-2-yl)-4-oxo-1,4-dihydro-1,8-naphthyridine-3-carboxamide], at human M2 receptor [1], the pEC50 is 6.96 and the Emax is 100%.
In the same order, the values of `CC(C)(NC(=O)c1cn(-c2ncc(F)cc2F)c2nc(N3CCC(CO)(CO)CC3)ccc2c1=O)C(F)(F)C(F)(F)F` [Example 187] are 6.58 and 97.5%.
Turning to `CC(C)(NC(=O)c1cn(-c2ncc(F)cc2F)c2nc(N3CCC[C@@H]3CO)ccc2c1=O)C(F)(F)C(F)(F)F` [Example 188, 1-(3,5-Difluoropyridin-2-yl)-7-[(2R)-2-(hydroxymethyl)pyrrolidin-1-yl]-4-oxo-N-(3,3,4,4,4-pentafluoro-2-methylbutan-2-yl)-1,4-dihydro-1,8-naphthyridine-3-carboxamide], on human M2 receptor [1], the pEC50 was 6.93 and the Emax amounted to 100%.

Source of the values: patent US10519154B2, “7-substituted 1-pyridyl-naphthyridine-3-carboxylic acid amides and use thereof” (Bayer Pharma Aktiengesellschaft, priority 2016, dated 2019).
